Assay results: patent US8053435B2, “Naphthalenyloxypropenyl derivatives having inhibitory activity against histone deacetylase and pharmaceutical composition comprising the same” (Korea Research Institute of Chemical Technology, priority 2006, dated 2011)
Where two headings read alike, the source gives them in different places.

Experiments:
HDAC = experiment: Inhibitory activity against HDAC (BIOMOL Quantizyme Assay system, Fluor de Lys substrate); type: biochemical; details: HeLa nuclear extract as source of HDAC enzymes, enzyme reaction 1 hr
Procedure: HDAC activity was analyzed using BIOMOL Quantizyme™ Assay system which comprised two steps of 1) enzyme reaction between HDAC and a substrate and 2) determination of the level of HDAC inhibitory activity.
(§1) 0.5 μl of HeLa nuclear organic layer (10 μM) (a source of HDAC enzymes) was then added thereto to a final concentration of 100 nM. The enzyme reaction was carried out for 1 hr.
Subsequently, in step 2), 2 μM tricostatin A was added to 50 μl of Flour de Lys™ developer, followed by allowing the mixture to react at room temperature for 15 minutes. The light excited at 355 nm and emitted at 460 nm from the fluorophore was measured with a fluorometric plate reader. The intensity of the fluorescence increases as the enzyme activity is higher. The HDAC inhibitory activity of each of the test compounds was determined and compared with that of the control.
0.5 μl of HeLa nuclear organic layer (10 μM) (a source of HDAC enzymes) was then added thereto to a final concentration of 100 nM, The enzyme reaction was carried out for 1 hr.
as §1, §1

[1] = test system: colon cancer cells HCT116; experiment: Inhibitory activity against proliferation of cancer cells, SRB (Sulforhodamine B) analysis; type: cell-based; details: read-out: Inhibitory conc. against cancer cell growth (EC50 μM) HCT116
Procedure: Cancer cells were inoculated into a 96-well microplate at a concentration of 1×10^3˜3×10^3 cells/well and incubated under the condition of 37° C., 5% CO2 for 24 hrs. After the incubation was completed, 0.2, 1, 5, 25, or 100 μM of each of the compounds of Examples was added to the plate, and then the reactant was incubated for 48 hrs. After the substrate was stained with SRB, the anti-cancer activity was determined by comparing the amount of protein in the cells treated with the compound of Examples with that of protein in untreated cells.
Specifically, after the incubation was completed, the culture medium was removed from each well, and the cells were washed 3 times with PBS (pH 7.4). Then, a solution of 50% trichloroacetic acid (TCA) was added to each well in an amount of 50 μl/well at 4° C. for 1 hr to fix them. Then, the microplate was washed 5 times with distilled water and dried in air. […]
50 μl of a staining solution prepared by dissolving 0.4% SRB in 1% acetic acid was added to the wells, and the microplate was kept at room temperature for 1 hr. The well plate was then washed 5 times with 1% acetic acid to remove unbound SRB and dried in air. The stained cells were treated with 150 μl/well of 10 mM Tris-HCl solution (pH 10.5) to elute SRB from the cells, and the absorbance of the cells treated with the compounds of examples at 540 nm was measured, based on the absorbance of an untreated cell. The EC50 value representing inhibition of the cancer cell growth by the extent of 50% was calculated from the measured absorbance, and the results are shown in Table 6.

[2] = Table 5, formula (3) series, read-out: Inhibitory conc. (IC50, μM/ml)
[3] = Homo sapiens, HCT-116, Table 6, 48 hrs incubation with compound
[4] = Table 7, formula (4) series, read-out: HDAC Inhibitory conc. (IC50, μM/ml)
[5] = Homo sapiens, HCT-116, Table 8, 48 hrs incubation with compound

Compound | IC50 (HDAC; [2]) | EC50 [1, 3] | IC50 (HDAC; [4]) | EC50 [1, 5] | EC50 ([1]; Table 6, 48 hrs incubation with compound)
O=C(CCCC/C=C(/CNCCN1CCOCC1)COc1cccc2ccccc12)NO [Example 3-1, (Z)—N-hydroxy-8-(2-morpholinoethylamino)-7-((naphthalen-1-yloxy)methyl)oct-6-enamide] | 0.002 µM | 0.2 µM | – | – | –
COCC(C)NC/C(=C/CCCCC(=O)NO)COc1cccc2ccccc12 (centres unmarked) [Example 3-2, (Z)—N-Hydroxy-8-(1-methoxypropan-2-ylamino)-7-((naphthalen-1-yloxy)methyl)oct-6-enamide] | 0.005 µM | 0.2 µM | – | – | –
O=C(CCCC/C=C(/CNCCCN1CCCC1=O)COc1cccc2ccccc12)NO [Example 3-3, (Z)—N-Hydroxy-8-(naphthalen-1-yloxy)-7-((3-(2-oxopyrrolidin-1-yl)propylamino)methyl)oct-6-enamide] | 0.003 µM | 0.5 µM | – | – | –
O=C(CCCC/C=C(/CNCCCn1ccnc1)COc1cccc2ccccc12)NO [Example 3-4, (Z)-8-(3-(1H-Imidazol-1-yl)propylamino)-N-hydroxy-7-((naphthalen-1-yloxy)methyl)oct-6-enamide] | 0.003 µM | 0.7 µM | – | – | –
CN(C)CC(C)(C)CNC/C(=C/CCCCC(=O)NO)COc1cccc2ccccc12 [Example 3-7, (Z)-8-(3-(Dimethylamino)-2,2-dimethylpropylamino)-N-hydroxy-7-((naphthalen-1-yloxy)methyl)oct-6-enamide] | 0.012 µM | 1.2 µM | – | – | –
O=C(CCCC/C=C(/CNCCN1CCCC1)COc1cccc2ccccc12)NO [Example 3-8, (Z)—N-Hydroxy-8-(naphthalen-1-yloxy)-7-((2-(pyrrolidin-1-yl)ethylamino)methyl)oct-6-enamide] | 0.005 µM | 0.5 µM | – | – | –
COCCNC/C(=C/CCCCC(=O)NO)COc1cccc2ccccc12 [Example 3-10, (Z)—N-Hydroxy-8-(2-methoxyethylamino)-7-((naphthalen-1-yloxy)methyl)oct-6-enamide] | 0.006 µM | < 0.2 µM | – | – | –
CC(C)N1CCC(NC/C(=C/CCCCC(=O)NO)COc2cccc3ccccc23)CC1 [Example 3-11, (Z)—N-Hydroxy-8-(1-isopropylpiperidin-4-ylamino)-7-((naphthalen-1-yloxy)methyl)oct-6-enamide] | 0.012 µM | 1.3 µM | – | – | –
O=C(CCCC/C=C(/CNCc1cccs1)COc1cccc2ccccc12)NO [Example 3-14, (Z)—N-Hydroxy-8-(naphthalen-1-yloxy)-7-((thiophen-2-ylmethylamino)methyl)oct-6-enamide] | 0.002 µM | 0.3 µM | – | – | –
CCN1CCC(NC/C(=C/c2ccc(C(=O)NO)cc2)COc2cccc3ccccc23)CC1 [Example 4-1, (Z)-4-(3-(1-ethylpiperidin-4-ylamino)-2-((naphthalen-1-yloxy)methyl)prop-1-enyl)-N-hydroxybenzamide] | – | – | 0.014 µM | 1.1 µM | –
CCN1CCC(NC/C(=C/c2ccc(C(=O)NO)cc2)COc2cccc3ccccc23)C1 (centres unmarked) [Example 4-2, (Z)-4-(3-(1-ethylpyrrolidin-3-ylamino)-2-((naphthalen-1-yloxy)methyl)prop-1-enyl)-N-hydroxybenzamide] | – | – | 0.017 µM | 0.8 µM | –
O=C(NO)c1ccc(/C=C(/CNC2CCN(C3CCCC3)CC2)COc2cccc3ccccc23)cc1 [Example 4-7, (Z)-4-(3-(1-cyclopentylpiperidin-4-ylamino)-2-((naphthalen-1-yloxy)methyl)prop-1-enyl)-N-hydroxybenzamide] | – | – | 0.016 µM | 10 µM | –
O=C(NO)c1ccc(/C=C(/CNC2CCN(C3CC3)CC2)COc2cccc3ccccc23)cc1 [Example 4-10, (Z)-4-(3-(1-cyclopropylpiperidin-4-ylamino)-2-((naphthalen-1-yloxy)methyl)prop-1-enyl)-N-hydroxybenzamide] | – | – | 0.011 µM | 0.5 µM | –
O=C(NO)c1ccc(/C=C(/CNC2CCN(C3CC3)C2)COc2cccc3ccccc23)cc1 (centres unmarked) [Example 4-11, (Z)-4-(3-(1-cyclopropylpyrrolidin-3-ylamino)-2-((naphthalen-1-yloxy)methyl)prop-1-enyl)-N-hydroxybenzamide] | – | – | 0.023 µM | 1 µM | –
COCC(C)NC/C(=C/c1ccc(C(=O)NO)cc1)COc1cccc2ccccc12 (centres unmarked) [Example 4-13, (Z)—N-hydroxy-4-(3-(1-methoxypropan-2-ylamino)-2-((naphthalen-1-yloxy)methyl)prop-1-enyl)benzamide] | – | – | 0.005 µM | < 0.2 µM | –
CC(C)N1CCC(NC/C(=C/c2ccc(C(=O)NO)cc2)COc2cccc3ccccc23)CC1 [Example 4-15, (Z)—N-hydroxy-4-(3-(1-isopropylpiperidin-4-ylamino)-2-((naphthalen-1-yloxy)methyl)prop-1-enyl)benzamide] | – | – | 0.014 µM | 0.4 µM | –
O=C(NO)c1ccc(/C=C(/CNCCCn2ccnc2)COc2cccc3ccccc23)cc1 [Example 4-16, (Z)-4-(3-(3-(1H-imidazol-1-yl)propylamino)-2-((naphthalen-1-yloxy)methyl)prop-1-enyl)-N-hydroxybenzamide] | – | – | 0.003 µM | 0.7 µM | –
O=C(NO)c1ccc(/C=C(/CNCCc2ccc(O)cc2)COc2cccc3ccccc23)cc1 [Example 4-17, (Z)—N-hydroxy-4-(3-(4-hydroxyphenethylamino)-2-((naphthalen-1-yloxy)methyl)prop-1-enyl)-benzamide] | – | – | 0.003 µM | < 0.2 µM | –
CN(C)CC(C)(C)CNC/C(=C/c1ccc(C(=O)NO)cc1)COc1cccc2ccccc12 [Example 4-18, (Z)-4-(3-(3-(dimethylamino)-2,2-dimethylpropylamino)-2-((naphthalen-1-yloxy)methyl)prop-1-enyl)-N-hydroxybenzamide] | – | – | 0.006 µM | 0.31 µM | –
CC(C)N(CCNC/C(=C/c1ccc(C(=O)NO)cc1)COc1cccc2ccccc12)C(C)C [Example 4-19, (Z)-4-(3-(2-(diisopropylamino)ethylamino)-2-((naphthalen-1-yloxy)methyl)prop-1-enyl)-N-hydroxybenzamide] | – | – | 0.016 µM | 0.8 µM | –
COCCNC/C(=C/c1ccc(C(=O)NO)cc1)COc1cccc2ccccc12 [Example 4-20, (Z)—N-hydroxy-4-(3-(2-methoxyethylamino)-2-((naphthalen-1-yloxy)methyl)prop-1-enyl)-benzamide] | – | – | 0.01 µM | < 0.2 µM | –
O=C(NO)c1ccc(/C=C(/CNCc2cccs2)COc2cccc3ccccc23)cc1 [Example 4-22, (Z)—N-hydroxy-4-(3-(naphthalen-1-yloxy)-2-((thiophen-2-ylmethylamino)methyl)prop-1-enyl)benzamide] | – | – | 0.02 µM | 1.3 µM | –
COc1ccc(CCNC/C(=C/c2ccc(C(=O)NO)cc2)COc2cccc3ccccc23)cc1 [Example 4-23, (Z)—N-hydroxy-4-(3-(4-methoxyphenethylamino)-2-((naphthalen-1-yloxy)methyl)prop-1-enyl)-benzamide] | – | – | 0.04 µM | 0.8 µM | –
CN(C)c1ccc(CNC/C(=C/c2ccc(C(=O)NO)cc2)COc2cccc3ccccc23)cc1 [Example 4-24] | – | – | 0.011 µM | 0.5 µM | –
(Z)-8-(4-Fluorophenethylamino)-N-hydroxy-7-((naphthalen-1-yloxy)methyl)oct-enamide [Example 3-9] | 0.003 µM | – | – | – | 0.4 µM
